A short description of experiment [1]: Inhibition of CHK1 in human HT29 cells assessed as check point abrogation.
The nature of experiment [2]: Inhibition of CHK1 in human HT29 cells assessed as abrogation of camptothecin induced check point.

By EC50 is commonly meant the midpoint of the concentration-response curve. For `N#Cc1cccc(-c2cc(C(=O)N[C@H]3CCCNC3)c(NC(N)=O)s2)c1`, the EC50 was more than 13000 nM in experiment [1] and 940 nM in experiment [2].
The like results for `NC(=O)Nc1cc(-c2ccc(Cl)c(Cl)c2)sc1C(=O)N[C@H]1CCCNC1` were, in that order, 5800 nM and 200 nM.
The like results for `NC(=O)Nc1cc(-c2ccccc2)sc1C(=O)N[C@H]1CCCNC1` were, in that order, 590 nM and 20 nM.
On the same counts, the results for `NC(=O)Nc1sc(-c2ccc(F)cc2)cc1C(=O)N[C@H]1CCCNC1` [(S)-1-(5-(4-fluorophenyl)-3-(piperidin-3-ylcarbamoyl)thiophen-2-yl)urea] are 600 nM and 30 nM.
As to `N#Cc1ccc(-c2cc(C(=O)N[C@H]3CCCNC3)c(NC(N)=O)s2)cc1` [(S)-1-(5-(4-cyanophenyl)-3-(piperidin-3-ylcarbamoyl)thiophen-2-yl)urea], the EC50 in experiment [1] was 1700 nM; in experiment [2] it was 8 nM.
The like results for `NC(=O)Nc1sc(-c2ccc(F)cc2F)cc1C(=O)N[C@H]1CCCNC1` were, in that order, 1400 nM and 190 nM.
Regarding `N#Cc1ccc(-c2cc(NC(N)=O)c(C(=O)N[C@H]3CCCNC3)s2)cc1`, the EC50 turned out to be 600 nM in experiment [1] and 30 nM in experiment [2].
With `NC(=O)Nc1cc(-c2cccc(Cl)c2)sc1C(=O)N[C@H]1CCCNC1`, the EC50 was 700 nM in experiment [1] and 10 nM in experiment [2].
For the molecule `NC(=O)Nc1sc(-c2ccc(Cl)c(Cl)c2)cc1C(=O)N[C@H]1CCCNC1`, the concentration for a half-maximal effect (EC50) in experiment [1] was 5700 nM; in experiment [2] it was 150 nM.
For `NC(=O)Nc1sc(-c2cccc(F)c2F)cc1C(=O)N[C@H]1CCCNC1`, the EC50 in experiment [1] was 1800 nM; in experiment [2] it was 100 nM.
The like results for `NC(=O)Nc1sc(-c2cccc(F)c2)cc1C(=O)N[C@H]1CCCNC1` [1-(3-((S)-piperidin-3-ylcarbamoyl)-5-(3-fluorophenyl)thiophen-2-yl)urea] were, in that order, 840 nM and 20 nM.
For the molecule `NC(=O)Nc1sc(-c2ccccc2F)cc1C(=O)N[C@H]1CCCNC1` [1-(3-((S)-piperidin-3-ylcarbamoyl)-5-(2-fluorophenyl)thiophen-2-yl)urea], the EC50 in experiment [1] was 1060 nM; in experiment [2] it was 80 nM.
On the same counts, the results for `NC(=O)Nc1sc(-c2cc(F)cc(F)c2)cc1C(=O)N[C@H]1CCCNC1` are 1500 nM and 30 nM.
The like results for `NC(=O)Nc1cc(-c2ccccc2F)sc1C(=O)N[C@H]1CCCNC1` were, in that order, 2200 nM and 20 nM.
Take `NC(=O)Nc1sc(-c2cccc(Cl)c2)cc1C(=O)N[C@H]1CCCNC1` [1-(3-((S)-piperidin-3-ylcarbamoyl)-5-(3-chlorophenyl)thiophen-2-yl)urea]: the EC50 was found to be 1200 nM in experiment [1] and 40 nM in experiment [2].
On the same counts, the results for `N#Cc1cccc(-c2cc(NC(N)=O)c(C(=O)N[C@H]3CCCNC3)s2)c1` are 1900 nM and 40 nM.
On the same counts, the results for `NC(=O)Nc1cc(-c2cccc(F)c2F)sc1C(=O)N[C@H]1CCCNC1` are 1500 nM and 60 nM.
The like results for `NC(=O)Nc1cc(-c2ccc(F)cc2)sc1C(=O)N[C@H]1CCCNC1` were, in that order, 13000 nM and 20 nM.
Turning to `NC(=O)Nc1cc(-c2cc(F)cc(F)c2)sc1C(=O)N[C@H]1CCCNC1`, the figures for the EC50 in experiment [1] and in experiment [2] were 2500 nM and 60 nM, respectively.
On the same counts, the results for `NC(=O)Nc1cc(-c2ccc(F)cc2F)sc1C(=O)N[C@H]1CCCNC1` are 1100 nM and 20 nM.

Source of the values: BindingDB's records for doi:10.1021/jm300025r (Astrazeneca, 2012).
